System: C. difficile infection
Experiment: Anecdotal treatment of patients with C. difficile infection
Format: in vivo, human
Details: patient, second presentation
Procedure: A patient was suffering severe symptoms of C. difficile infection, in spite of narrow-spectrum antibiotic treatment, for a period of approximately three months. The treatment protocol was then modified to include, additionally, the oral administration of cranberry puree and GOS at least once daily.
A further patient, presenting for the second time with symptoms of c. difficile was treated initially with metronidazole and then, subsequently, with vancomycin. […] At the point of administration of a mixture of galacto-oligosaccharide and cranberry puree the patient was recording 16 episodes of open bowel in a 24 hour period, was suffering from severe dehydration and was causing significant concern that death might imminently result.

CN[C@H](CC(C)C)C(=O)N[C@H]1C(=O)N[C@@H](CC(N)=O)C(=O)N[C@H]2C(=O)N[C@H]3C(=O)N[C@H](C(=O)N[C@H](C(=O)O)c4cc(O)cc(O)c4-c4cc3ccc4O)[C@H](O)c3ccc(c(Cl)c3)Oc3cc2cc(c3O[C@@H]2O[C@H](CO)[C@@H](O)[C@H](O)[C@H]2O[C@H]2C[C@](C)(N)[C@H](O)[C@H](C)O2)Oc2ccc(cc2Cl)[C@H]1O [vancomycin]
effect of antibiotic treatment on symptoms of c. difficile: Neither treatment was having any effect

Cc1ncc([N+](=O)[O-])n1CCO [metronidazole]
effect of antibiotic treatment on symptoms of c. difficile: Neither treatment was having any effect
